Assay results taken from patent publication US20230339988A1, “Metal Complexes Of Macrocycles And/Or Isoprenoids And/Or Linear Tetrapyrroles By Mechanochemistry (Grinding Or Milling), Preparation Method Thereof, Sunscreen/Concealer/UV Absorber Thereof, Self-Assembled Coating Material Thereof, Superamphiphilic Material Or Surfaces Thereof, Hair Dyeing Thereof …” (priority 2019, published 2023).

Test: Solubility in carbon disulfide
Format: physicochemical
Conditions: test tube
Text: Carbon disulfide is a non-polar solvent which is commonly used as solvent for metal complexes.
It is clear that all of the reactants reacted by this mechanochemical process. The mechanochemical reaction promotes a chemical change.

With `COc1cc(/C=C/C(=O)CC(=O)/C=C/c2ccc(O)c(OC)c2)ccc1O` [Curcumin] the “solubility in carbon disulfide” value was “completely soluble”.
